{
  "source": "patent US12318381B2",
  "about": "“Treatment for non-alcoholic fatty liver disease” (1GLOBE BIOMEDICAL CO., LTD., priority 2018, dated 2025)",
  "key": {"HFD-fed mice [1]": {"tested_on": "HFD-fed mice", "experiment": "HFD-induced NAFLD mouse model: serum ALT and AST levels", "assay_type": "in vivo", "from_the_text": "(§1) Five-week-old male, C57Bl/6J mice (12-18 per group, Jackson Laboratory, Bar Harbor, Me.) were fed ad libitum with a modified high fat or control diet (Bioserv, Frenchtown, N.J.) for 15 weeks. […] We had verified the efficacy of this diet to induce obesity and NAFLD in various pilot studies. At the end of the 15-week long feeding regimen, this diet caused substantial ALT elevation—indicative of liver injury—in these mice.\n(§2) After 15 weeks on the modified HFD, the mice were put on a Compound 13-3 (or control vehicle) dosing regimen, in which the introductory 5 mg/kg (p.o., t.i.w. for the first 3 weeks) dose was followed by the administration of 10 mg/kg (p.o., t.i.w. for additional 5 weeks) therapeutic dose. During the course of the drug treatment, the animals were monitored daily for changes in body weight, food/water intake, and adverse effects.\n(§3) This biochemical change is very important, as ectopic fat accumulation has been linked to lipotoxicity and hepatocellular injury. The extent of liver injury has been characterized by measuring serum levels of two liver enzymes ALT (FIG. 6B) and AST (FIG. 6C) (UMASS Mouse Phenotyping Center Analytical Core, Worcester, Mass.) at the time of euthanasia."}, "FABP4": {"tested_on": "FABP4", "experiment": "Hepatic gene expression in HFD-fed mice", "assay_type": "in vivo, mouse", "conditions": "HFD-fed mice liver (FIG. 8C)", "from_the_text": "as §1, §2\n(§4) FGF21 has also been linked to the suppression of adipogenesis by suppressing hepatic PPAR-γ, FABP4 and CD36 (Xu J, et al. Diabetes (2009) 58(1):250-259). In view of this, we next assessed the expression of these mediators of adipogenesis in the livers of Compound 13-3-treated, HFD-fed mice."}, "CD36": {"tested_on": "CD36", "experiment": "Hepatic gene expression in HFD-fed mice", "assay_type": "in vivo, mouse", "conditions": "HFD-fed mice liver (FIG. 8D)", "from_the_text": "as §1, §2, §4"}, "PPAR-γ [2]": {"tested_on": "PPAR-γ", "experiment": "Hepatic gene expression in HFD-fed mice", "assay_type": "in vivo, mouse", "conditions": "HFD-fed mice (FIG. 8A)", "from_the_text": "as §1, §2, §4"}, "leptin": {"tested_on": "leptin", "experiment": "Serum leptin ELISA in HFD-fed mice", "assay_type": "in vivo, mouse", "conditions": "ELISA (FIG. 7E)", "from_the_text": "as §1, §2\nA suppressive effect of exogenous FGF21 on circulating leptin levels has been previously observed in non-human primates. Accordingly, we also measured serum leptin levels using a commercially available ELISA kit."}, "human HepG2 liver cells": {"tested_on": "human HepG2 liver cells", "experiment": "Intracellular triglyceride content in palmitoleic acid-treated HepG2 cells (biochemical kit)", "assay_type": "cell-based", "conditions": "HepG2, 1.6 mM palmitoleic acid in EMEM, 48 hours, 0.1 μM compound vs DMSO (FIG. 1A)", "experimental": "A series of in vitro experiments were first carried out with various human hepatocyte cultures. For example, human HepG2 liver cells were incubated with 1.6 mM palmitoleic acid in EMEM medium for 48 hours in the presence of 0.1 μM Compound 13-3 or control vehicle, DMSO. After 48 hours, cells were collected and the intracellular triglyceride content was measured by a biochemical kit (Biovision, Mountain View, Calif.) as described in Derdak et al. J Hepatol. 2013; 58(4):785-91."}, "FGF21 [3]": {"tested_on": "FGF21", "experiment": "Hepatic gene expression by quantitative real-time PCR in HFD-fed mice", "assay_type": "in vivo, mouse", "conditions": "HFD-fed mice (FIG. 7C)", "from_the_text": "as §1, §2\n(§5) To study the effect of Compound 13-3 on the mediators of fatty acid metabolism, we employed quantitative real-time PCR using commercially available probes to assess mediators of fatty acid metabolism in HFD-fed mice treated with Compound 13-3. As shown in FIGS. 7A-7E, gene expression of some key mediators of fatty acid oxidation such as CPT1a (FIG. 7A), an enzyme that catalyzes the rate-limiting step of fatty acid oxidation in the mitochondrion, of peroxisomal ACOX1 (FIG. 7B) and of FGF21 (FIG. 7C), a recently described hepatokine with pronounced anti-NAFLD and hepatoprotective efficacy (see, Maratos-Flier E Exp Cell Res (2017) 360(1): 2-5; Sonoda J, et al. Horm Mol Biol Clin Investig (2017) 30(2); Xu J, et al. Diabetes (2009) 58(1):250-259; Li H, et al. Diabetes (2012) 61(4): 797-806; Desai B N, et al. Mot Metab (2017) 6(11):1395-1406), were increased by Compound 13-3 treatment in HFD-fed mice. Many of the beneficial metabolic effects are linked to FGF21, and FGF21 itself may further enhance fatty acid oxidation (Xu J, et al. Diabetes (2009) 58(1):250-259; Li H, et al. Diabetes (2012) 61(4):797-806). We, therefore, also measured serum levels of FGF21 using a commercially available ELISA kit."}, "ACOX1": {"tested_on": "ACOX1", "experiment": "Hepatic gene expression by quantitative real-time PCR in HFD-fed mice", "assay_type": "in vivo, mouse", "conditions": "HFD-fed mice (FIG. 7B)", "from_the_text": "as §1, §2, §5"}, "CPT1a": {"tested_on": "CPT1a", "experiment": "Hepatic gene expression by quantitative real-time PCR in HFD-fed mice", "assay_type": "in vivo, mouse", "conditions": "HFD-fed mice (FIG. 7A)", "from_the_text": "as §1, §2, §5"}, "PPAR-γ [4]": {"tested_on": "PPAR-γ", "experiment": "Hepatic protein expression by Western-blotting and densitometry in HFD-fed mice", "assay_type": "in vivo, mouse", "conditions": "Western-blotting and densitometry (FIG. 8B)", "from_the_text": "as §1, §2, §4"}, "collagen type I, alpha 1": {"tested_on": "collagen type I, alpha 1", "experiment": "Hepatic gene expression by quantitative real-time PCR in HFD-fed mice", "assay_type": "in vivo, mouse", "conditions": "HFD-fed mice liver, quantitative real-time PCR (FIG. 5D)", "from_the_text": "as §1, §2\nTherefore, pharmaceutical compositions based on Compound 13-3 and other compounds of the invention will likely provide a viable treatment of NAFLD and especially NASH."}, "HFD-fed mice [5]": {"tested_on": "HFD-fed mice", "experiment": "High-fat diet (HFD)-induced obesity/NAFLD mouse model: body weight, food/water intake, liver size and weight", "assay_type": "in vivo", "from_the_text": "(§6) In order to assess the in vivo efficacy of Compound 13-3 in improving obesity, and ameliorating NAFLD/NASH, a previously used modified high-fat diet (HFD) was employed to induce obesity and severe fatty liver disease in mice (Derdak et al. Journal of Hepatology 2013; 58(4):785-91).\nas §1, §2"}, "HFD-fed mice [6]": {"tested_on": "HFD-fed mice", "experiment": "HFD-induced NAFLD mouse model: hepatic triglyceride biochemical assay", "assay_type": "in vivo", "conditions": "HFD-fed mice liver (FIG. 6A)", "from_the_text": "as §1, §2, §3"}, "HFD-fed mice [7]": {"tested_on": "HFD-fed mice", "experiment": "HFD-induced NAFLD mouse model: liver histology (H&E, Masson's trichrome, PAS) and NAFLD Activity Score", "assay_type": "in vivo", "from_the_text": "as §6, §1, §2\nThe pronounced efficacy of Compound 13-3 in improving NAFLD was further supported by microscopical analysis of the harvested liver samples (FIG. 4).\nMicroscopic evaluation of hematoxylin-eosin (H&E) stained liver slides was performed by an expert pathologist to determine the effect of the drug treatment on the NAFLD Activity Score (NAS), as a primary read-out for the anti-NAFLD efficacy of Compound 13-3. The composite NAS score is frequently used to describe the severity of the characteristic pathological changes seen in NAFLD/NASH (Kleiner D E et al. Hepatology. 2005; 41(6):1313-21), including steatosis, lobular inflammation (FIG. 5A), and hepatocellular ballooning (FIG. 5B)."}, "FGF21 [8]": {"tested_on": "FGF21", "experiment": "Serum FGF21 ELISA in HFD-fed mice", "assay_type": "in vivo, mouse", "conditions": "ELISA (FIG. 7D)", "from_the_text": "as §1, §2\nTo study the effect of Compound 13-3 on the mediators of fatty acid metabolism, we employed quantitative real-time PCR using commercially available probes to assess mediators of fatty acid metabolism in HFD-fed mice treated with Compound 13-3. […] We, therefore, also measured serum levels of FGF21 using a commercially available ELISA kit."}},
  "note": "“Also recorded” adds a separate entry of the source.",
  "data": [
    {"compound": "CCN(CC)CCNC(=O)c1c(C)[nH]c(/C=C2\\C(=O)Nc3ccc(-c4csc(-c5ccccc5)n4)cc32)c1C", "note": "[Compound 13-3]", "values": [
      {"measurement": "serum ALT", "setting": "HFD-fed mice [1]; at euthanasia (FIG. 6B)", "result": "suppresses ALT elevation"},
      {"measurement": "serum AST", "setting": "HFD-fed mice [1]; at euthanasia (FIG. 6C)", "result": "not affected"},
      {"measurement": "serum AST:ALT ratio", "setting": "HFD-fed mice [1]; vs vehicle (FIG. 6D)", "result": "largely prevent the drastic decrease"},
      {"measurement": "FABP4 gene expression", "setting": "FABP4", "result": "decreased"},
      {"measurement": "CD36 gene expression", "setting": "CD36", "result": "decreased"},
      {"measurement": "PPAR-γ gene expression in the liver", "setting": "PPAR-γ [2]", "result": "suppressed"},
      {"measurement": "serum leptin level (HFD-induced increase)", "setting": "leptin", "result": "significantly decreased"},
      {"measurement": "palmitoleic acid-induced increase of intracellular triglyceride content", "setting": "human HepG2 liver cells", "result": "markedly suppressed"},
      {"measurement": "FGF21 gene expression", "setting": "FGF21 [3]", "result": "pronounced elevation"},
      {"measurement": "ACOX1 gene expression", "setting": "ACOX1", "result": "increased"},
      {"measurement": "CPT1a gene expression", "setting": "CPT1a", "result": "increased"},
      {"measurement": "PPAR-γ protein expression in the liver", "setting": "PPAR-γ [4]", "result": "suppressed"},
      {"measurement": "hepatic production (gene expression) of collagen type I, alpha 1", "setting": "collagen type I, alpha 1", "result": "marked decrease"},
      {"measurement": "change in body weight during treatment", "setting": "HFD-fed mice [5]; HFD-fed C57Bl/6J mice, 5 mg/kg p.o. t.i.w. 3 weeks then 10 mg/kg p.o. t.i.w. 5 weeks (FIG. 2A)", "result": "not only prevented additional weight gain in the mice on HFD, but also triggered a gradual weight loss"},
      {"measurement": "food intake", "setting": "HFD-fed mice [5]; HFD-fed mice, 5 mg/kg then 10 mg/kg p.o. t.i.w. (FIG. 2C)", "result": "not linked to decreased food intake"},
      {"measurement": "water intake", "setting": "HFD-fed mice [5]; HFD-fed mice, 5 mg/kg then 10 mg/kg p.o. t.i.w. (FIG. 2D)", "result": "not linked to decreased food intake or water intake"},
      {"measurement": "size of the liver (macroscopic overview at euthanasia)", "setting": "HFD-fed mice [5]; HFD-fed mice, 5 mg/kg then 10 mg/kg p.o. t.i.w., vs vehicle (FIG. 2E, 3A)", "result": "markedly decreased the size of the liver; also recorded: essentially comparable to the lean animals"},
      {"measurement": "macroscopic appearance of the liver", "setting": "HFD-fed mice [5]; HFD-fed mice, vs vehicle (pale yellow enlarged liver) (FIG. 2E)", "result": "healthier, darker brown appearance"},
      {"measurement": "fatty metamorphosis / ectopic fat accumulation in the liver", "setting": "HFD-fed mice [5]; HFD-fed mice, vs vehicle-treated littermates (FIG. 3A-3C)", "result": "markedly decreased or prevented ectopic fat accumulation"},
      {"measurement": "liver weight", "setting": "HFD-fed mice [5]; HFD-fed mice, vs vehicle-treated littermates, at euthanasia (FIG. 3A, 3B)", "result": "profoundly decrease liver weight"},
      {"measurement": "hepatic triglyceride content", "setting": "HFD-fed mice [6]", "result": "prevented the HFD-induced steatosis"},
      {"measurement": "HFD-induced steatosis and lobular inflammation (NAS components)", "setting": "HFD-fed mice [7]; HFD-fed mice (FIG. 5A)", "result": "suppressed"},
      {"measurement": "HFD-induced hepatocellular ballooning (NAS component)", "setting": "HFD-fed mice [7]; HFD-fed mice (FIG. 5B)", "result": "eliminated"},
      {"measurement": "hepatic glycogen depletion (Periodic Acid Schiff staining)", "setting": "HFD-fed mice [7]; HFD-fed mice, vehicle group depleted in zones 2 & 3 (FIG. 4 bottom row)", "result": "evidence for hepatic depletion of glycogen was not present"},
      {"measurement": "fibrosis (Masson's trichrome staining)", "setting": "HFD-fed mice [7]; HFD-fed mice, vehicle group showed stage 1 fibrosis (FIG. 4 middle row)", "result": "did not exhibit any signs of fibrosis"},
      {"measurement": "H&E histology: disorganized liver architecture, micro- and macrovesicular steatosis, hepatocyte ballooning and inflammation", "setting": "HFD-fed mice [7]; HFD-fed mice, vs vehicle (FIG. 4 top row)", "result": "markedly suppressed"},
      {"measurement": "NAFLD Activity Score (NAS)", "setting": "HFD-fed mice [7]; HFD-fed mice, vs vehicle-treated littermates (FIG. 5C)", "result": "substantially lower"},
      {"measurement": "serum FGF21 level", "setting": "FGF21 [8]", "result": "increased"}
    ]}
  ]
}
